*1 amine or outer side, *2 acyl side, *3 side chain or, on linkers, in order; H or OH if unused. Where a SMILES comes first, the peptide text is derived from it. The star is where a group is joined. X1 = O=C(CCCC[C@@H]1SC[C@@H]2NC(=O)N[C@@H]21)NCCCOCCOCCOCCCN*; Suc = O=C(CCC(=O)[*:2])[*:1]

These results are taken from paper PMC7774954, “Interactomic affinity profiling by holdup assay: Acetylation and distal residues impact the PDZome-binding specificity of PTEN phosphatase” (PLoS ONE, 2020).

Common to all, as to type: binding, human
One test has as its system LMO7-1. Put plainly: Holdup assay, LMO7-1.
The next test has as its system DLG2-3. Put plainly: Holdup assay, DLG2-3.
In the next test the test system is AHNAK1-1. The experiment in a line: Holdup assay, AHNAK1-1.
For the next test, the system named is GIPC3-1. The experiment in a line: Holdup assay, GIPC3-1.

On to `CC[C@H](C)[C@H](NC(=O)[C@H](CCC(N)=O)NC(=O)[C@@H](NC(=O)[C@H](Cc1c[nH]cn1)NC(=O)[C@H](CCC(N)=O)NC(=O)[C@H](CC(=O)O)NC(=O)[C@H](CCC(=O)O)NC(=O)[C@H](CC(=O)O)NC(=O)CCC(=O)NCCCOCCOCCOCCCNC(=O)CCCC[C@@H]1SC[C@@H]2NC(=O)N[C@@H]21)[C@@H](C)O)C(=O)N[C@H](C(=O)N[C@@H](CCCCN)C(=O)N[C@H](C(=O)O)C(C)C)[C@@H](C)O` [PTEN_11], for which, in the test with LMO7-1, the BI is given as -0.045 and the LogKD is listed as 3.519.
With `CC[C@H](C)[C@H](NC(=O)[C@H](CCC(N)=O)NC(=O)[C@@H](NC(=O)[C@H](Cc1c[nH]cn1)NC(=O)[C@H](CCC(N)=O)NC(=O)[C@H](CC(=O)O)NC(=O)[C@H](CCC(=O)O)NC(=O)[C@H](CC(=O)O)NC(=O)[C@H](Cc1ccccc1)NC(=O)[C@@H]1CCCN1C(=O)CCC(=O)NCCCOCCOCCOCCCNC(=O)CCCC[C@@H]1SC[C@@H]2NC(=O)N[C@@H]21)[C@@H](C)O)C(=O)N[C@H](C(=O)N[C@@H](CCCCN)C(=O)N[C@H](C(=O)O)C(C)C)[C@@H](C)O` [PTEN_13] ({X1-Suc}-PFDEDQHTQITKV-OH), the figures for the BI with DLG2-3, in the test with AHNAK1-1 and in the test on GIPC3-1 were 0.083, -0.053 and 0.032, respectively.
